Where a name gives a salt, the structure may show the parent alone.

The target of assay [1] is T1, MgGH51 (Meripilus giganteus, UniProt Z9H0M4BQG1).
T1 construct: mature secreted enzyme, expressed in Aspergillus oryzae, N-glycosylated (Asn145, Asn245, Asn421, Asn487), untagged
T1 sequence (Z9H0M4BQG1 1-627): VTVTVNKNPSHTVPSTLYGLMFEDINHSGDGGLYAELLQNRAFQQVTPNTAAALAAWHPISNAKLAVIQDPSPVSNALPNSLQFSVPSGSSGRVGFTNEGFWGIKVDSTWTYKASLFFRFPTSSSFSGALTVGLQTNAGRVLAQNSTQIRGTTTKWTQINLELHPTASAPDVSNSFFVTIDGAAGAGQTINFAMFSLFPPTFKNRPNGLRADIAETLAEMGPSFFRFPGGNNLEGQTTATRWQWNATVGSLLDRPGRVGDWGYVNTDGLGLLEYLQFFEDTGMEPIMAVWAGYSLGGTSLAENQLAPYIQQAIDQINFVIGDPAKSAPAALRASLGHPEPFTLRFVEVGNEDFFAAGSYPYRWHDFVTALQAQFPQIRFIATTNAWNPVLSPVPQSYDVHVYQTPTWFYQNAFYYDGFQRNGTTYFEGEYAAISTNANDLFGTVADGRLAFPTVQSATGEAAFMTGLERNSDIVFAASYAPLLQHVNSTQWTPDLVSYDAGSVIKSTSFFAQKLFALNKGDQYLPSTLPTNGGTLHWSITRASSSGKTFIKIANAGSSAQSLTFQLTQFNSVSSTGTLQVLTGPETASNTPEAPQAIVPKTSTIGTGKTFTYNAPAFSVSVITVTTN
The experiment in a line: hydrolysis kinetics, released L-arabinose quantified on CarboPac PA20. The assay is classed as biochemical. To be noted: 40 °C, 50 mM sodium acetate pH 4, 5 ng/ml enzyme, 0.02-2.5 mM substrate; kind of constant not told in main text.

The target of assay [2] is T1, MgGH51. Nature of the assay: X-ray crystal structure, […] Å. The assay is classed as binding. The settings on record: type 1 crystal, about one equivalent of inhibitor, 1 h at room temperature; covalent, bound to nucleophile Glu429 (ring-opened aziridine).
The target in assay [3] is T1, MgGH51. The experiment in a line: X-ray crystal structure, […] Å. The class given is binding. To be noted: type 1 crystal, about one equivalent of inhibitor, 1 h at room temperature; covalent, bound to nucleophile Glu429 (ring-opened cyclic sulfate); PDB code from Tables 3 and 4, the supplementary list pri.

For the molecule `OC[C@@H]1O[C@@H](OC[C@@H]2O[C@@H](OC[C@@H]3OC(O)[C@H](O)[C@H]3O)[C@H](O)[C@H]2O)[C@H](O)[C@H]1O` (stereo partly drawn) [A3, α(1,5)-linked arabinotriose], the “hydrolysis kinetics, released L-arabinose quantified on CarboPac PA20” value in assay [1] is “Measurement of the hydrolytic kinetics of MgGH51 towards the AX2 and A3 oligosaccharides”.

With `OC[C@@H]1O[C@@H](O[C@@H]2[C@@H](O)[C@H](O[C@@H]3COC(O)[C@H](O)[C@H]3O)OC[C@H]2O)[C@H](O)[C@H]1O` (stereo partly drawn) [AX2, 3^2-α-L-Arabinofuranosyl-xylobiose], the “hydrolysis kinetics, released L-arabinose quantified on CarboPac PA20” value in assay [1] is “Measurement of the hydrolytic kinetics of MgGH51 towards the AX2 and A3 oligosaccharides”.

Consider `OC[C@H]1[C@H](O)[C@@H](O)[C@@H]2N[C@H]12` [α-L-AraAZI, α-L-arabinocyclophellitol aziridine], for which the “X-ray crystal structure, 1.54 Å” value in assay [2] is recorded as “α-L-AraCS or α-L-AraAZI gave clear density for these two ligands bound to Glu429”.

With `O=S1(=O)O[C@@H]2[C@@H](CO)[C@H](O)[C@@H](O)[C@@H]2O1` [α-L-AraCS, α-L-arabinocyclophellitol cyclic sulfate], in assay [3], the “X-ray crystal structure, 1.71 Å” value is reported as “α-L-AraCS or α-L-AraAZI gave clear density for these two ligands bound to Glu429”.

For the origin of these results see paper PMC7604909, “Structure of a GH51 α-L-arabinofuranosidase from Meripilus giganteus: conserved substrate recognition from bacteria to fungi” (Acta Crystallographica. Section D, Structural Biology, 2020).
